Patent US20250326722A1 (SHANGHAI HANSOH BIOMEDICAL CO., LTD., priority 2022, published 2025)

Assays:
[1] = molecular target: PCSK9 secreted by HepG2 cells (Homo sapiens (Human), UniProt Q8NBP7); assay: Effect on the concentration of PCSK9 secreted by HepG2 cells (ELISA); assay type: cell-based; conditions: 48 hours incubation, read-out: Inhibitory activity on PCSK9, IC50
[2] = test system: LDLR level in HepG2 cells; assay: Effect on the LDLR level in HepG2 cells (ELISA); assay type: cell-based, human; design: concentration or dose not given beside the values; conditions: 48 hours incubation, LDLR ELISA of lysate
Procedure: To detect the effect of the compounds on the LDLR protein level.
Envision (PE-Cisbio: 2105-0020), centrifuge (Eppendorf: 5810R), water purifier (THERMO: Pacific T II+Micropure), plate washer (Thermo: […] VERSA), and microplate shaker (Thermo: 88882006)
• 1) HepG2 cell strain was cultured in the complete culture medium at 37° C., 5% CO2 to 70-90% confluence. • 2) The cells were digested and resuspended in the experimental culture medium, inoculation was performed at 25,000 cells/well/200 μL in a 96-well cell culture plate, and the cells were cultured at 37° C., 5% CO2 for 20-24 hours. • 3) The culture medium was removed from the cell culture plate, and the cell culture plate was washed once by adding 200 μl of the experimental culture medium to each well. • 4) Preparation of positive control compound and compound to be tested: the positive control compound and the compound to be tested were diluted on the compound plate. • 5) The diluted compound was added to the cell culture plate at 250 μL per well and incubated at 37° C. and 5% CO2 for 48 hours. • 6) The cell culture medium was removed, the cells were washed with PBS, and 50 μL of the cell lysis buffer and the protein inhibitor were added. • 7) After centrifugation, the lysate was removed and the sample was stored for later use. • 8) Preparation of standard curve: corresponding volumes of Dilution buffer were successively added to respective standard tubes, and the standard was diluted in series by taking the corresponding volume from the original tube or the last concentration tube. • 9) Preparation of washing liquid: 10× Wash buffer was diluted into 1× with Milli-Q for later use. • 10) According to the standard curve wells and sample wells set according to a plate map, 80 μL/well of the corresponding standards and samples were added to the wells, with 2 replicate wells. A well in which no standard was added was used as a background value well. A self-adhesive seal was applied, the plate was placed on a plate shaker at room temperature, gently shaken, uniformly mixed, and incubated for 2 hours. • 11) The plate was placed on the plate washer, the washing liquid was set to 350 μL per well, and the plate was washed 4 times repeatedly. • 12) 200 μL of Human LDLR conjugate was added, a self-adhesive seal was applied, and the plate was placed on the plate shaker, well mixed uniformly, and incubated for 2 hours. • 13) The plate was placed on the plate washer, the washing liquid was set to 350 μL per well, and the plate was washed 4 times repeatedly. • 14) 200 μL/well of Substrate solution was added, and the plate was placed in the dark, applied with a self-adhesive seal, placed on the plate shaker, well mixed uniformly, and incubated for 20 minutes. • 15) 50 μL/well of Stop solution was added and mixed uniformly over 20 min. • 16) The optical density (OD) value in each well was measured in sequence at a wavelength of 450 nm by the microplate reader.
After the OD values were read by the microplate reader, the OD value of the 0-concentration standard in the standard group was subtracted from the OD values of the standards, control group, and samples to obtain the actual OD values for these wells. A standard curve was plotted with Graphpad and the concentration of the sample was calculated. If the dilution was performed during the sample detection, the calculated sample concentration was necessarily multiplied by the corresponding dilution ratio in the final calculation, which was the actual concentration of the sample. Concentration increase %=(actual concentration in control-actual concentration in sample)/actual concentration in control*100.

Chain of PCSK9 secreted by HepG2 cells (Q8NBP7 153-692): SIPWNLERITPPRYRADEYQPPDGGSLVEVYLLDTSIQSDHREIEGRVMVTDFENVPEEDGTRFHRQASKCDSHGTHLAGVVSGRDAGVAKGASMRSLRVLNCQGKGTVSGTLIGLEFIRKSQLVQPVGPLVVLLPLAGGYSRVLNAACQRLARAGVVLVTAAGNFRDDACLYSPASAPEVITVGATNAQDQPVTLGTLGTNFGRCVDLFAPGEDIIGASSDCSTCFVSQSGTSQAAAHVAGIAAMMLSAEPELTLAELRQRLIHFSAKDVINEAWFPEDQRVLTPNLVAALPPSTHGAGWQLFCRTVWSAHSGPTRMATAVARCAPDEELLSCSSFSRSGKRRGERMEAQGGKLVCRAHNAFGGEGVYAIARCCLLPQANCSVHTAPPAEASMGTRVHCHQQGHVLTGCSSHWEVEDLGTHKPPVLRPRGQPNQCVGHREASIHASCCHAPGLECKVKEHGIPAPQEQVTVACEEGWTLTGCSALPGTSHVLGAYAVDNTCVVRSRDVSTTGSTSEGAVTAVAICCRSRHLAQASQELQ
Chain of PCSK9 secreted by HepG2 cells (Q8NBP7 31-152 partner): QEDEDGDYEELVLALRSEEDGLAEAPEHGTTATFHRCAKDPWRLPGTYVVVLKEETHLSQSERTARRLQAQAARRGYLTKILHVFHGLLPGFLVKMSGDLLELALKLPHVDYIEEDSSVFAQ

IC50 [1] [µM]	SMILES	LDLR expression level [2] [%]
4.2	O=C1c2c(cccc2C(F)(F)F)CN1c1ccc(N[C@H]2CC[C@H](Nc3ncc(C(F)(F)F)nn3)C2)nc1 [Example 157, 7-(Trifluoromethyl)-2-(6-(((1S,3S)-3-((6-(trifluoromethyl)-1,2,4-triazin-3-yl)amino)cyclopentyl)amino)pyridin-3-yl) isoindolin-1-one]	129
9.4	Cc1cc2c(cn1)CN(c1ccc(N[C@H]3CC[C@H](Nc4ncc(C(F)(F)F)nn4)C3)nc1)C2=O [Example 148, 6-Methyl-2-(6-(((1S,3S)-3-((6-(trifluoromethyl)-1,2,4-triazin-3-yl)amino)cyclopentyl)amino)pyridin-3-yl)-2,3-dihydro-1H-pyrrolo[3,4-c]pyridin-1-one]	121
27.5	O=C1c2ncccc2CN1c1ccc(N[C@H]2CC[C@H](Nc3ncc(C(F)(F)F)nn3)C2)nc1 [Example 144]	117
